Legend:
other PKC isozymes = conditions: in vitro studies; cited from earlier work
Kv7.2 = biological target: T1, Kv7.2 (Homo sapiens, UniProt O43526); test: Two-electrode current recording of human KCNQ (Kv7) channels heterologously expressed in Xenopus laevis oocytes; format: cell-based; conditions: different concentrations
T1 construct: expressed in transfected cells; host or cells: Xenopus laevis oocytes
Text: (§1) Rottlerin was applied at different concentrations to the expressed Kv7 channels.

Kv7.5 = biological target: T2, Kv7.5 (Homo sapiens, UniProt Q9NR82); test: as above; format: cell-based; conditions: different concentrations
T2 construct: expressed in transfected cells; host or cells: Xenopus laevis oocytes
Text: as §1

Kv7.4 = biological target: T3, Kv7.4 (Homo sapiens, UniProt P56696); test: as above; format: cell-based
T3 construct: expressed in transfected cells; host or cells: Xenopus laevis oocytes
Text: as §1

Kv7.1 = biological target: T4, Kv7.1 (Homo sapiens, UniProt P51787); test: as above; format: cell-based
T4 construct: expressed in transfected cells; host or cells: Xenopus laevis oocytes
Text: as §1

Kv7.1/KCNE1 = biological target: T5, Kv7.1/KCNE1 (Homo sapiens, UniProt P51787); test: as above; format: cell-based
T5 construct: expressed in transfected cells; host or cells: Xenopus laevis oocytes
Text: as §1

Kv7.3 = biological target: T6, Kv7.3 (Homo sapiens, UniProt O43525); test: as above; format: cell-based; conditions: different concentrations
T6 construct: expressed in transfected cells; host or cells: Xenopus laevis oocytes
Text: as §1

PKCδ = PKCδ (Homo sapiens, UniProt Q05655); conditions: in vitro studies; cited from earlier work
PKCδ, sequence (Q05655 whole entry): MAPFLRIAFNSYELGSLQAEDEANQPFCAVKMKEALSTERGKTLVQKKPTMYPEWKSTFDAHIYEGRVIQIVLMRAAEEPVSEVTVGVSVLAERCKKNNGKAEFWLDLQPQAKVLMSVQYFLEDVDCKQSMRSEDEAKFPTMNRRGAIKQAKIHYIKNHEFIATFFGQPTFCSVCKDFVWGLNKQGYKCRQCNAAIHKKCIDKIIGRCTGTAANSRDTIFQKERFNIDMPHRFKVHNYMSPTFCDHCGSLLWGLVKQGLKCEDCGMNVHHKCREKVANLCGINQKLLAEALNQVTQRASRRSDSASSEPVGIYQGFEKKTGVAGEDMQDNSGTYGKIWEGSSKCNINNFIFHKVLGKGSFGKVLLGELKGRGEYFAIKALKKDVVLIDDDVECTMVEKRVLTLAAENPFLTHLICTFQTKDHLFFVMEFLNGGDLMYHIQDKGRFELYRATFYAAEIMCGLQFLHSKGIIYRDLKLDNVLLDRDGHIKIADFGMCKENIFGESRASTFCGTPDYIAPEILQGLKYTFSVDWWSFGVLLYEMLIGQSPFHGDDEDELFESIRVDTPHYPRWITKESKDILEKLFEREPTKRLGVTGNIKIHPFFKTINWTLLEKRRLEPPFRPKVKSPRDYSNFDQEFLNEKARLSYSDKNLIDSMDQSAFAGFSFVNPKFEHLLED

T3 sequence (P56696 whole entry): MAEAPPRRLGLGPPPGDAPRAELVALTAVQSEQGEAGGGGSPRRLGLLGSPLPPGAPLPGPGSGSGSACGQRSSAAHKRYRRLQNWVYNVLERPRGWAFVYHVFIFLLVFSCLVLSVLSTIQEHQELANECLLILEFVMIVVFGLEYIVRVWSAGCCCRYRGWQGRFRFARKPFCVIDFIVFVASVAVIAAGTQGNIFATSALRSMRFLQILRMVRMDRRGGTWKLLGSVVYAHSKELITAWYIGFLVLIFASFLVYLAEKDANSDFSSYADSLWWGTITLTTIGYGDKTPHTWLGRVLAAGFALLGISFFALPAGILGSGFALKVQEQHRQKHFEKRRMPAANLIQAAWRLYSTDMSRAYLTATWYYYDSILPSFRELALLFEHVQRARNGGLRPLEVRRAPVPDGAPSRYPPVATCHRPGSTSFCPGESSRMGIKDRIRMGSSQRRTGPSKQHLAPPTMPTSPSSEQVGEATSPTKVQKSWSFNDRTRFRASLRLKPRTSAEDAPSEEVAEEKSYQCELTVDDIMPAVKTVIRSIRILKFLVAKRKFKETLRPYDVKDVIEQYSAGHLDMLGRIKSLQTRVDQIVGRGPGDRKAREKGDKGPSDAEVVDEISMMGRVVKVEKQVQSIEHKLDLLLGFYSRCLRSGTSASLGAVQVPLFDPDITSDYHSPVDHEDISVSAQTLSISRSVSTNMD
T4 sequence (P51787 whole entry): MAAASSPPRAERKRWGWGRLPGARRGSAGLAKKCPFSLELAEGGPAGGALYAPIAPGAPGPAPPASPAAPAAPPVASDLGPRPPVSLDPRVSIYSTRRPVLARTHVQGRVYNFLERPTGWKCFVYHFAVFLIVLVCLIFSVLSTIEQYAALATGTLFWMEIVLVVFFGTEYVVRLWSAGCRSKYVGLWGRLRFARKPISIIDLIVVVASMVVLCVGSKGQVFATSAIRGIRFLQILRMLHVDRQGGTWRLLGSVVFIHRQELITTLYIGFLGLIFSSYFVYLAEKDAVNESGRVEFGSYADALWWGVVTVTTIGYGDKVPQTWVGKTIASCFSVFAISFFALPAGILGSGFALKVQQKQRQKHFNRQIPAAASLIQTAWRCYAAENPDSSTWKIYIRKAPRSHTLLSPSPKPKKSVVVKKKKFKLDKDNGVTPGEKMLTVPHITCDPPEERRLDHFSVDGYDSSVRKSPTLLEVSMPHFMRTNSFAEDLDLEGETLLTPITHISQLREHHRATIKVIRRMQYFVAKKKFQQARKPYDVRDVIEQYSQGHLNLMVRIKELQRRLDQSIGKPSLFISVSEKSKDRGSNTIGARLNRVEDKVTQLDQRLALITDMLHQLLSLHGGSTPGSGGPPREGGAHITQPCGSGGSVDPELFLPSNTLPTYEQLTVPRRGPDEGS
T5 sequence (P51787 whole entry): as the sequence (P51787 whole entry) above
T2 sequence (Q9NR82 whole entry): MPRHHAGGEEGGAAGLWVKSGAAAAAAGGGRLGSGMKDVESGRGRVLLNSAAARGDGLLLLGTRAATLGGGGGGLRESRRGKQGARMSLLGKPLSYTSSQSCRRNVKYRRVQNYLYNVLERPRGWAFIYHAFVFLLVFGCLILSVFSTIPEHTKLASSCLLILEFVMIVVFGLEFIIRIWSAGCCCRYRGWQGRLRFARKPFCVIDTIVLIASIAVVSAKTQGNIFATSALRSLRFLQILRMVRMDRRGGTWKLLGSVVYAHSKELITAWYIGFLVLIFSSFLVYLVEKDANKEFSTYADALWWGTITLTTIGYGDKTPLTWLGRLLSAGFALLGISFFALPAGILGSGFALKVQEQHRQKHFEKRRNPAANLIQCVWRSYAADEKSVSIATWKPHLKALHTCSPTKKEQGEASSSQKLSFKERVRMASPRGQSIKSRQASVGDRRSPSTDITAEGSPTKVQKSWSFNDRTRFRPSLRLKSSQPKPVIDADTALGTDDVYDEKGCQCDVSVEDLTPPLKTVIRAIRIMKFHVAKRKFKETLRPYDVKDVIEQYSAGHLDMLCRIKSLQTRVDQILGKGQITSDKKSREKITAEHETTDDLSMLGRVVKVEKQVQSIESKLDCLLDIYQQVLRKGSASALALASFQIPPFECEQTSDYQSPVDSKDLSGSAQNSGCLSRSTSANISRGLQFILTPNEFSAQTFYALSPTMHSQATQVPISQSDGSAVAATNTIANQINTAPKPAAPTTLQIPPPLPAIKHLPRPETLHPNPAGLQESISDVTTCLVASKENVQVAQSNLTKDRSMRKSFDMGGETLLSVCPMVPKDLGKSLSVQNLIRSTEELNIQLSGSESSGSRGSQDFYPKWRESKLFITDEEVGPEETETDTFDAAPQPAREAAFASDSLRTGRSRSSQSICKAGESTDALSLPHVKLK
T1 sequence (O43526 whole entry): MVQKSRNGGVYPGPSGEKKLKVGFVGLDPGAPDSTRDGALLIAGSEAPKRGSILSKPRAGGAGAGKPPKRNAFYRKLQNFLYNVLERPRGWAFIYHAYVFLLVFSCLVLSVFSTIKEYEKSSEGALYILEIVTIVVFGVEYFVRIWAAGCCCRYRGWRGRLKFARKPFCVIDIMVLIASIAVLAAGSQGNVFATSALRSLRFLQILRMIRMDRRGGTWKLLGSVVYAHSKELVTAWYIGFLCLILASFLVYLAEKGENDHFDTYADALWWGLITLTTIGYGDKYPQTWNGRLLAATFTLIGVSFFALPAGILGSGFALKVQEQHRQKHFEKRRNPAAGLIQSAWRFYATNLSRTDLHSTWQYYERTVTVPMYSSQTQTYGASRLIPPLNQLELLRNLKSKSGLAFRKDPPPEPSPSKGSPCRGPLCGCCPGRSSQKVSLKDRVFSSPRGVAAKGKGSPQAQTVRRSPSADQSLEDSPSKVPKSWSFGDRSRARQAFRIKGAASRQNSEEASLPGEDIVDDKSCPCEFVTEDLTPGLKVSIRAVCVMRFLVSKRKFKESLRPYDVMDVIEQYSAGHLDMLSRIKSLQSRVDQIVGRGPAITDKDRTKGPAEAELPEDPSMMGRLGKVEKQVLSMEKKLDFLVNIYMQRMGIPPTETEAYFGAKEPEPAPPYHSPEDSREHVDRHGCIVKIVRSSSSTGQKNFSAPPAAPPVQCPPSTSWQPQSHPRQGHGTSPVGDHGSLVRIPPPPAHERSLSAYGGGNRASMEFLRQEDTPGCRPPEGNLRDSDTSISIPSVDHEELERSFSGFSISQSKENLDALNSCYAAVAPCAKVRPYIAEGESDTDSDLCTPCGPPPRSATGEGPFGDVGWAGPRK

In the case of `CC(=O)c1c(O)c(C)c(O)c(Cc2c(O)c3c(c(C(=O)/C=C/c4ccccc4)c2O)OC(C)(C)C=C3)c1O` [rottlerin, 5,7-dihydroxy-2,2-dimethyl-6-(2,4,6-trihydroxy-3-methyl-5-acetylbenzyl)-8-cinnamoyl-1,2-chromene], the IC50 (other PKC isozymes) is given as 30 to 100 µM, the effect on currents (Kv7.2) is given as “no significant effect” and the effect on currents (Kv7.5) is given as “no significant effect”. The EC50 (Kv7.4) was 0.148 µM, the effect on currents (Kv7.4; Kv7.4, different concentrations) was “significant robust activation” and the “potency on Kv7.4 relative to Kv7.1/KCNE1” value (Kv7.4; more potent on Kv7.4 than on cardiac and epithelial Kv7.1/KCNE1) was “about 30 fold”. For the same compound, the EC50 (Kv7.1) was 1.48 µM, the effect on currents (Kv7.1; Kv7.1, different concentrations) was “significant robust activation” and the EC50 (Kv7.1/KCNE1) was 4.9 µM. For the same compound, the effect on currents (Kv7.1/KCNE1; Kv7.1/KCNE1, different concentrations) was “significant robust activation”, the effect on currents (Kv7.3) was “no significant effect” and the IC50 (PKCδ) was 3 to 6 µM.

Reference: patent EP2578210A1, “Rottlerin for the treatment of pulmonary hypertension and related diseases and disorders” (ATB Innovation Ltd., priority 2011, dated 2013)
